{
  "source": "patent US20240197774A1",
  "about": "“Synthesis of Antimicrobial PVP-coated Bismuth Nanoparticles” (Board of Regents, The University of Texas System, priority 2021, published 2024)",
  "origin": "cited, not measured here",
  "test_system": "humans",
  "settings": "intake for years, considered non-toxic",
  "data": [
    {"smiles": "[Bi]", "note": "[Bismuth]", "values": [
      {"measurement": "Intake", "value": "5 to 20", "unit": "g/day/kg"}
    ]}
  ]
}
